Assay results as given in patent publication US20020090619A1, “Methods for identifying mitochondrial divalent cation transporters” (priority 2000, published 2002).

Legend:
[1] = system: Saccharomyces cerevisiae strain K473; experiment: Growth inhibition by Ca2+ of pmc1 mutant yeast; type: cell-based; conditions: YPD medium, 30° C., 22 hr; read-out: 50% decrease in relative growth (IC50)
Description: This example describes growth inhibition by Ca^2+ of Saccharomyces cerevisiae strain K473, a pmc1 mutant lacking function in a vacuolar Ca2+ ATPase (Cunningham et al., 1996, Molec. Cell. Biology 16:2226-37; Cunningham et al., 1994 J. Cell Biol. 124:351-363). The strain was grown at 30° C. on standard YPD medium supplemented with 0, 50, 100, 200 or 300 mM CaCl2, as indicated. […]

[2] = system: yeast mitochondria; experiment: Membrane potential ΔΨ of isolated yeast mitochondria (safranin O); type: biochemical, Saccharomyces cerevisiae
Description: (§1) The yeast strain W303-1A (Saccharomyces cerevisiae) was grown aerobically at 30° C. in a medium containing 2% lactate, 1% yeast extract, 2% peptone, 0.05% dextrose, and 0.01% adenine at pH 5.0, and cells were harvested during the logarithmic phase (A600=1.8−2.2). Mitochondria were isolated from spheroplasts as previously described (Jung et al., 1997 J. Biol. Chem. 272:21104), except that 0.6 M sucrose was used in the homogenization medium instead of 0.6 M mannitol (Daum et al., 1982 J. Biol. Chem. 257:13028). The resulting preparations were maintained on ice and were suspended in 0.6 M mannitol 20 mM HEPES (K+) (pH 6.8), containing 0.75 mg/ml BSA and 0.1 mM EGTA. Protein concentration was determined by a reduced volume Biuret method in which 50 μl of the final preparation were solubilized by adding an equal volume of 10% deoxycholate (Na+), with 0.4 ml of Biuret reagent added to the resulting mixture. BSA was employed as the standard.
Unless otherwise noted, mitochondria were incubated at 1 mg protein/ml and at approximately 25° C. in a medium that contained 0.6 M mannitol, 10 mM Pi (K+), 10 mM Hepes (TEA+), pH 7.2, plus 1 mM ethanol as an oxidizable substrate. Compounds having a low solubility in water were added from stock solutions prepared in methanol or DMSO. Ca2+ transport and membrane potential were monitored using the indicating dyes antipyrylazo III (ΔA720-790) and safranin O (ΔA511-533), respectively (Akerman et al., 1976 FEBS Lett. 68:191; Scarpa et al., 1978 Biochem. 17:1378). An SLM Aminco DW-2C spectrophotometer operated in the dual wavelength mode was employed for these purposes. The same instrument, operated in split beam mode, was used to monitor mitochondrial swelling as a decrease in apparent absorbance of mitochondrial suspensions at 540 nm. Oxygen consumption data were obtained using a Clark-type electrode in parallel experiments. Atomic absorption spectroscopy was utilized to monitor the transport of other cations by yeast mitochondria. Briefly, samples were taken at appropriate times and the mitochondria were rapidly sedimented in a microcentrifuge. After carefully removing supernatants, the pellets were solubilized with 2 N percholoric acid (overnight) and centrifuged a second time. The resulting supernatants were diluted with an appropriate volume of distilled water and the concentration of the cation in question was subsequently determined.

[3] = system: isolated yeast mitochondria; experiment: Ca2+ transport in isolated yeast mitochondria expressing aequorin (luminescence); type: biochemical, Saccharomyces cerevisiae; conditions: FIG. 24
Description: For preculture, the transformant was inoculated into 50 ml of SC-U plus 2% glucose, and incubated in an air shaker at 180 rpm and 30° C. At 24 hr, the preculture was transferred to 500 ml of a medium containing 1% yeast extract, 2% peptone, 2% lactate, 1% galactose, 0.012% adenine, pH 5 w/NaOH, and growth was continued under conditions which were otherwise the same. Cells were harvested after an additional 24 hr, spheroplasts were prepared using zymolyase, and mitochondria were isolated by the method of Daum et al. (1982) as previously described (Jung et al., 1997). The final pellet was resuspended at ˜20 mg protein/ml in 0.6 M mannitol, 20 mM HEPES (K^+ salt, pH 6.8). Apoaequorin in the intact or disrupted mitochondria was reconstituted by incubation with coelenterazine as described above for cells.
For most experiments, the mitochondria were present at 0.4 mg protein/ml in a standard medium that contained 0.3 M KCl, 20 mM HEPES, (K^+ salt, pH 7.10), 10 mM KH2PO4, 2 mM EGTA, and 2 mM MgCl2. Other additions are described in greater detail below. Ca^2+ buffers were formed by adding various amounts of CaCl2 to this EGTA containing medium. The free Ca^2+ concentrations which resulted were calculated using a computer program (Brooks et al., 1992 Anal. Biochem. 201:119).
Luminescence measurements were carried out in 6×50 mm culture tubes, using a total volume of 0.3 ml, and were started by injection of 5-20 μl of mitochondria or cells. A SAI model 3000 integrating photometer was employed, with AJD sampling at 0.4 seconds intervals driven by Asyst software. Values were transformed into corresponding Ca^2+ concentrations by computer assisted calculations based upon published calibration methods (Allen et al., 1977 Science 195:996; Brini et al., 1995 J. Biol. Chem. 270:9896). For each value, the ratio of observed luminescence (L) to the potential luminescence remaining (Lmax) was calculated, and compared to a calibration curve which relates this ratio to the free Ca^2+ concentration. Thus, complete calibrated progress curves were generated. The total luminescence available initially (Ltotal) must be known and was determined in separate experiments, wherein a saturating Ca^2+ concentration (20 μM) is employed to discharge the aequorin completely. This value allows Lmax to be calculated at any time, as Ltotal minus the sum of luminescence that already occurred.
The calibration data were obtained at an ionic strength of 335 mM and in the presence of 1 mM Mg^2+, to mimic conditions in the mitochondrial matrix, because both factors influence the affinity of aequorin for Ca2+ (Cobbold et al., 1987 Biochem. J. 248:313). Luminescence values were corrected for low background values that are obtained when Ca^2+ is absent before conducting further calculations.

[4] = system: PMC1/PMR1 double ATPase mutant cells; conditions: Cunningham et al., 1994; cited from earlier work
[5] = system: yeast mitochondria; experiment: ETH 129 mediated Ca2+ transport in isolated yeast mitochondria (antipyrylazo III); type: biochemical, Saccharomyces cerevisiae; conditions: BSA 0.5 mg/ml, 60 μM CaCl2, 3.6 μM ETH 129, increasing oleate, FIG. 14
Description: as §1, with “BSA was employed as the standard.” left out
Unless otherwise noted, mitochondria were incubated at 1 mg protein/ml and at approximately 25° C. in a medium that contained 0.6 M mannitol, 10 mM Pi (K+), 10 mM Hepes (TEA+), pH 7.2, plus 1 mM ethanol as an oxidizable substrate. […] Ca2+ transport and membrane potential were monitored using the indicating dyes antipyrylazo III (ΔA720-790) and safranin O (ΔA511-533), respectively (Akerman et al., 1976 FEBS Lett. 68:191; Scarpa et al., 1978 Biochem. 17:1378). […]

[6] = ETH 129 mediated cation transport into Quin-2 loaded POPC vesicles; type: biochemical; conditions: 1.0 mM CaCl2, no Val, FIG. 5
Description: Unilamellar vesicles loaded with Quin-2 were prepared from 1-palmitoyl-2-oleoyl-sn-glycerophosphatidylcholine (POPC) by freeze-thaw extrusion (Erdahl et al., 1994 Biophys. J. 66:1678; Erdahl et al., 1995 Biophys. J. 69:2350). The formation medium contained 5 mM Quin-2 (K+), 10 mM Hepes (K+), pH 7.00, and 100 mM KCl. A high internal K+ concentration was sought to allow the generation of membrane potentials of varying magnitude (see below). The preparations obtained were applied to Sephadex™ G-50 mini-columns (Pharmacia, Piscataway N.J.) and eluted by low speed centrifugation (Fry et al., 1978 Anal. Biochem. 90:809), to replace the external medium with a 10 mM Hepes buffer (Na+), pH 7.00 (Erdahl et al., 1994 Biophys. J. 66:1678; Erdahl et al., 1995 Biophys. J. 69:2350). The nominal concentration of POPC in final preparations was determined as lipid phosphorus (Bartlett, 1959 J Biol. Chem. 234:466) and was near 80 mM. The average diameter of these vesicles was 71 nm as determined by freeze-fracture electron microscopy (Chapman et al., 1990 Chem. Phys. Lipids 55:73). They contained entrapped K+ at approximately 125 mM, as determined by atomic absorption spectroscopy, and Quin-2 at approximately 6 mM. The latter value was determined by titrating lysed vesicles with a standard solution of CaCl2 and was about one third of the expected value (Erdahl et al., 1995 Bipohys. J. 69:3250). The high solute level in the formation medium reduced the efficiency of Quin-2 entrapment by reducing the effectiveness of a freeze-thaw driven solute concentrating mechanism that normally elevates the internal concentrations of solutes, relative to the external medium (Chapman et al., 1990 Chem. Phys. Lipids 55:73; Chapman et al., 1990 Chem. Phys. Lipids 60:201).
POPC vesicles containing Quin-2 were utilized at a nominal phospholipid concentration of 1.0 mM, and at 25° C. The external medium contained polyvalent cation salts as described below, 100 mM NaCl, or mixtures of NaCl and KCl totaling […], and 10 mM Hepes, pH 7.00, unless otherwise noted. The medium pH was adjusted with NaOH that had been passed over Chelex 100 columns to remove contaminating cations (Erdahl et al., 1994 Biophys. J. 66:1678). In most cases an inside negative membrane electrical potential was present during the experiments. This was generated by the presence of 0.5 μM valinomycin (Val), which transports K+ out of the vesicles electrogenically (Erdahl et al., 1994 Biophys. J. 66:1678). The magnitude of the potential was controlled by varying the concentration ratio of Na+ to K+ in the external medium. A TPP+electrode was used to measure the potential (Broekemeier et al, 1998 Biochem. 37:13059), and thereby to verify that the calculated values were obtained. For these purposes the incubation medium contained 2.0 μM TPP.Cl and the entrapped volume was taken to be 2.02 μl/ml at a nominal POPC concentration of 1.0 mM (Chapman et al., 1990 Chem. Phys. Lipids 55:73).
Val was omitted when an imposed membrane potential was not desired, or in some cases 5 μM of the protonophore carbonyl cyanide m-chlorophenylhydrazone (CCP) was present instead of Val.
The transport of polyvalent cations was monitored by difference absorbance measurements which detected formation of the Quin-2:cation complex within the vesicle lumen. An Aminco DW2a spectrophotometer operated in the dual wavelength mode was employed. In addition, an Oriel No. 59800 band pass filter was used between the cuvette and the beam scrambler-photomultiplier assembly to prevent detection of the fluorescent light emitted by Quin-2. The sample wavelength for all cations was 264 nm. The reference wavelengths were at an isosbestic point in the Quin-2/Quin-2:cation complex difference spectrum of interest. These wavelengths varied slightly from cation to cation, as previously described (Erdahl et al., 1996 Biochem. 35:13817). […]

| SMILES | IC50 [1] [mM] | effect on ΔΨ, agent alone ([2]; BSA absent, FIG. 11B) | external Ca2+ giving half-maximal rate of change in matrix Ca^2+ ([3]; nonrespiring mitochondria) [µM] | external Ca2+ giving half-maximal rate of change in matrix Ca^2+ ([3]; respiring mitochondria (0.5 mM ethanol)) [µM] | cytostatic Ca^2+ concentrations [4] [µM] | suppression of ΔΨ during titration with exogenous oleate ([2]; ETH 129, free Ca2+ and BSA available, no EGTA, FIG. 16) | oleate level above which ΔΨ is depressed ([2]; excess EGTA (2 mM), ETH 129, CaCl2, BSA present, FIG. 16) | effect of exogenous oleate on ETH 129 mediated Ca2+ accumulation [5] | activation of ETH 129 mediated Ca2+ transport [6] |
| --- | --- | --- | --- | --- | --- | --- | --- | --- | --- |
| [Ca+2] [Ca2+] | 92 | little effect | 0.82 | 1.0 | ≤ 300 | – | – | – | – |
| CCCCCCCC/C=C\CCCCCCCC(=O)O [oleate, oleic acid] | – | – | – | – | – | began immediately | exceeded 15 nmol/mg protein | first inhibited further accumulation and then caused a reversal of the transport that had already occurred | inability of oleate (a lipophilic fatty acid anion) to substitute for CCP |
